Test results: publication PMC5537305, “Photo-enhanced Aqueous Solubilization of an Azo-compound” (Scientific Reports, 2017)
≈ marks a conversion by molar mass, not a printed value. Where “and” joins values, the source holds several entries; their conditions need not be identical. Equal entries are not always repeated. Where two headings read alike, the source gives them in different places.

Tests used:
[1] = Aqueous solubilization in 1/15 M phosphate buffer (pH 7.4) under UV, visible light or dark, with cis ratio in solution by HPLC; type: physicochemical; conditions: for increase of aqueous solubilization, UV irradiation vs dark: mercury lamp 0.5 mW/cm2; for Aqueous solubilized 3: successive irradiations
Method: Table S3. Cis ratio and aqueous solubilization of 3 under UV irradiation, under visible light irradiation, and in […]
Compound 3 was shaken at 37 °C under UV irradiation, under visible light irradiation, and in the dark. UV irradiation was performed with a mercury lamp (0.5 mW/cm2). Cis ratio in the aqueous solution was evaluated from the peak areas in HPLC immediately after filtration.
Table S4. Aqueous solubilization and cis ratio of 3 under irradiation at various wavelengths through filters of […]
Illumination was performed with a xenon lamp using repeated cycles of irradiation and shaking (5000 flashes, then shaking for 10 sec) through filters of various bandwidths at room temperature (20-22 °C) for 1 h. The cis ratio in the aqueous solution was evaluated by HPLC immediately after filtration, based on peak area.
Table S5. Aqueous solubilization of 3 under UV irradiation at various intensity levels.
Sample irradiation was conducted using 365 nm LED light (max light intensity: 290 mW/cm2) at 37 °C for 1 […]
Sample irradiations were conducted with the white light through a filter cutting off wavelengths below 560 nm, or with 365 nm LED light (344 mW/cm2) at 37 °C for 1 h.
(§1) Table S7. Aqueous dissolution of UV-irradiated crystals of 3 measured in the dark, and the cis ratio contained […]
Crystals of 3 were irradiated with 365 nm LED light (344 mW/cm2) at 37 °C for 3 h.
(§2) The UV-irradiated crystals and unirradiated crystals were each shaken in phosphate buffer in the dark at 37 °C for 1 h.
Physicochemical properties […]
Compound 3 (about 0.2 mg) was ground and taken up in 1/15 M phosphate buffer (pH 7.4, 1.0 mL) in a 10 mL glass tube. The suspension was incubated under ultrasound irradiation for 10 min, and shaken in a temperature controllable incubator located in a dark room for the indicated time at the indicated temperature.
With shaking on a plate shaker, a sample was irradiated with a 365 nm mercury lamp (4 W, UVP compact […]
white LED light (5 W, Nikki Trading Corp., NLSS05BM, 68 and 54 mW/cm2 at 450 and 540 nm, respectively) through a filter cutting off wavelengths below 560 nm (Atto Corp. YA-3). Irradiation was done from the top of the sample glass tube. Then, the suspension was filtered through a Millipore Millex-LG (0.20 […]
For irradiation at various UV wavelengths, 3 (about 0.1 mg) was ground and taken up in 1/15 M phosphate buffer (pH 7.4, 0.2 mL) in a well of a 96-well white plate. Illumination over a range of wavelength from 355-540 nm was performed using a plate reader EnVision equipped with a xenon flash lamp (35 W, 500 Hz), with excitation filters of appropriate bandwidths.

[2] = Aqueous dissolution in the dark of UV-irradiated crystals of 3; type: physicochemical; conditions: for cis ratio contained in the solution, on average: dissolved in the dark; for cis ratio / solubility at 1 h: 37 °C, 1 h; for solubility at 1 h: phosphate buffer, thermodynamic from solid, read-out: Aqueous solubilized 3
Source text: At the photostationary state under UV irradiation, the equilibria shown in Fig. 3a should be in balance. Here, we are interested in the transient process, i.e., how cis-3 in solution increases when UV irradiation is started. There are two possible routes for generating cis-3 in solution from trans-3 in the solid state: route (i) and (ii). Route (i) is clearly possible, because the process trans solution → cis solution is easily driven by UV irradiation (Fig. S3a). The remaining question is whether cis isomerization of solid 3 is induced under UV irradiation, that is, whether route (ii) also operates. To answer this question, we investigated the aqueous dissolution in the dark of UV-irradiated crystals of 3. The UV-irradiated crystals were clearly more soluble than the unirradiated crystals (Fig. 3b and Table S7). In addition, the cis ratio of UV-irradiated crystals contained in the solution was higher than that of unirradiated crystals (14% vs 4% on average, Table S7). […] Therefore, we conclude that routes (i) and (ii) both operate upon UV irradiation.
Figure 3 (a) Possible equilibria and routes for generating cis-3 in solution. (b) Kinetics of aqueous dissolution of UV-irradiated crystals of 3, measured in the dark. Crystals of 3 were irradiated with 365 nm LED light (344 mW/cm^2) at 37 °C for 3 h. The UV-irradiated crystals and unirradiated crystals were each shaken with phosphate buffer in the dark at 37 °C for 1 h. Data are the mean ± SD of three individual experiments. The asterisk indicates a significant difference (*p < 0.05) from the unirradiated crystals according to the unpaired, two-sided Student’s t-test. […]
as §1
Unirradiated crystals UV-irradiated crystals entry Aqueous solubilized 3 cis ratio (%) Aqueous solubilized 3 cis ratio (%) […]
Crystals of 3 were irradiated with 365 nm LED light (344 mW/cm2) at 37 °C for 3 h. It should be noted that […]
as §2

cis ratio in solution after UV irradiation ([1]; 365 nm LED, roughly constant, independent of light intensity): ~90%
increase of aqueous solubilization, UV irradiation vs dark ([1]; 0.5 h, 37 °C): 3.5 fold
increase of aqueous solubilization, UV irradiation vs dark ([1]; 1 h, 37 °C): 5.0 fold
increase of aqueous solubilization, UV irradiation vs dark ([1]; 5 h, 37 °C): 7.1 fold and 7 fold
cis ratio ([1]; Dark, 37 °C, shake time 0.5 h): 6%
cis ratio ([1]; Dark, 37 °C, shake time 1 h): 4%
cis ratio ([1]; Dark, 37 °C, shake time 5 h): 7%
cis ratio ([1]; UV light (mercury lamp 0.5 mW/cm2), 37 °C, shake time 0.5 h): 77%
cis ratio ([1]; UV light (mercury lamp 0.5 mW/cm2), 37 °C, shake time 1 h): 80%
cis ratio ([1]; UV light (mercury lamp 0.5 mW/cm2), 37 °C, shake time 3 h): 80%
cis ratio ([1]; UV light (mercury lamp 0.5 mW/cm2), 37 °C, shake time 5 h): 75%
cis ratio ([1]; UV light (mercury lamp 0.5 mW/cm2), 37 °C, shake time 8 h): 87%
cis ratio ([1]; Visible light, 37 °C, shake time 1 h): 25%
cis ratio ([1]; Visible light, 37 °C, shake time 5 h): 25%
cis ratio ([1]; light intensity 0.00 mW/cm2, 365 nm LED, 37 °C, 1 h): 4%
cis ratio ([1]; light intensity 4.56 mW/cm2, 365 nm LED, 37 °C, 1 h): 89%
cis ratio ([1]; light intensity 29.0 mW/cm2, 365 nm LED, 37 °C, 1 h): 92%
cis ratio ([1]; light intensity 290 mW/cm2, 365 nm LED, 37 °C, 1 h): 90%
increase of aqueous solubilization compared with the dark condition ([1]; maximum irradiation intensity 290 mW/cm2, 365 nm LED, 37 °C, 1 h): 23 fold
increase of aqueous solubilization by exposure to UV light ([1]; phosphate buffer, compared to without irradiation, up to): up to 20 fold
solubility at 1 h ([1]; phosphate buffer, pH 7.4, 46 °C, after 1 h, read-out: aqueous solubility): 3.5 µg/mL
solubility at 24 h ([1]; phosphate buffer, pH 7.4, 46 °C, after 24 h): 3.2 µg/mL
solubility at 1 h ([1]; phosphate buffer, pH 7.4, Dark, 37 °C, shake time 1 h, read-out: Solubility): 3 µg/mL
solubility at 0.5 h ([1]; phosphate buffer, pH 7.4, UV light (mercury lamp 0.5 mW/cm2), 37 °C, shake time 0.5 h, read-out: Solubilized 3): 11.1 µg/mL
solubility at 1 h ([1]; phosphate buffer, pH 7.4, UV light (mercury lamp 0.5 mW/cm2), 37 °C, shake time 1 h, read-out: Solubilized 3): 14.9 µg/mL
solubility at 3 h ([1]; phosphate buffer, pH 7.4, UV light (mercury lamp 0.5 mW/cm2), 37 °C, shake time 3 h, read-out: Solubilized 3): 18.4 µg/mL
solubility at 5 h ([1]; phosphate buffer, pH 7.4, UV light (mercury lamp 0.5 mW/cm2), 37 °C, shake time 5 h, read-out: Solubilized 3): 24.7 µg/mL
solubility at 8 h ([1]; phosphate buffer, pH 7.4, UV light (mercury lamp 0.5 mW/cm2), 37 °C, shake time 8 h, read-out: Solubilized 3): 24.2 µg/mL
solubility at 1 h ([1]; phosphate buffer, pH 7.4, Visible light, 37 °C, shake time 1 h, read-out: Solubilized 3): 4.6 µg/mL
solubility at 5 h ([1]; phosphate buffer, pH 7.4, Visible light, 37 °C, shake time 5 h, read-out: Solubilized 3): 5.1 µg/mL
solubility at 1 h ([1]; phosphate buffer, pH 7.4, light intensity 4.56 mW/cm2, 365 nm LED, 37 °C, 1 h, read-out: Aqueous solubilized 3): 12.3 µg/mL
solubility at 1 h ([1]; phosphate buffer, pH 7.4, light intensity 29.0 mW/cm2, 365 nm LED, 37 °C, 1 h, read-out: Aqueous solubilized 3): 36.2 µg/mL
solubility at 1 h ([1]; phosphate buffer, pH 7.4, light intensity 290 mW/cm2, 365 nm LED, 37 °C, 1 h, read-out: Aqueous solubilized 3): 69.6 µg/mL
solubility ([1]; phosphate buffer, pH 7.4, phosphate buffer, in the dark, after 0.5, 1 and 5 h at 37 °C, read-out: aqueous solubility): ~3 µg/mL
solubility ([1]; phosphate buffer, pH 7.4, white-light irradiation, after 1 and 5 h, 37 °C, read-out: solubilization): ~5 µg/mL
Aqueous solubilized 3 ([1]; step 1: visible (white light, filter cutting off below 560 nm), 37 °C, 1 h): 1.0 fold
Aqueous solubilized 3 ([1]; step 2: UV 365 nm LED 344 mW/cm2, 37 °C, 1 h): 35.5 fold
Aqueous solubilized 3 ([1]; step 3: visible, 37 °C, 1 h): 2.3 fold
Aqueous solubilized 3 ([1]; step 4: UV 365 nm LED 344 mW/cm2, 37 °C, 1 h): 37.9 fold
Aqueous solubilized 3 ([1]; step 5: visible, 37 °C, 1 h): 2.9 fold
cis ratio contained in the solution, on average ([2]; UV-irradiated crystals): 14%
cis ratio ([2]; UV-irradiated crystals, entry 1, dark): 21%
cis ratio ([2]; UV-irradiated crystals, entry 2, dark): 14%
cis ratio ([2]; UV-irradiated crystals, entry 3, dark): 7%
cis ratio ([2]; Unirradiated crystals, entry 1, dark): 5%
cis ratio ([2]; Unirradiated crystals, entry 2, dark): 3%
cis ratio ([2]; Unirradiated crystals, entry 3, dark): 4%
solubility at 1 h ([2]; aqueous buffer, Unirradiated crystals, entry 2, dark): 2.6 µg/mL (≈ 9.24 µM)
solubility at 1 h ([2]; pH 7.4, aqueous buffer, UV-irradiated crystals (365 nm LED 344 mW/cm2, 37 °C, 3 h), entry 1, dark): 3.7 µg/mL (≈ 13.2 µM)
solubility at 1 h ([2]; pH 7.4, aqueous buffer, UV-irradiated crystals, entry 2, dark): 3.4 µg/mL (≈ 12.1 µM)
solubility at 1 h ([2]; pH 7.4, aqueous buffer, UV-irradiated crystals, entry 3, dark): 3.2 µg/mL (≈ 11.4 µM)
solubility at 1 h ([2]; pH 7.4, aqueous buffer, Unirradiated crystals, entry 1, phosphate buffer, dark): 2.8 µg/mL (≈ 9.95 µM)
solubility at 1 h ([2]; pH 7.4, aqueous buffer, Unirradiated crystals, entry 3, dark): 3 µg/mL (≈ 10.7 µM)
cis ratio contained in the solution, on average ([2]; unirradiated crystals): 4%
SMILES: CC(C)n1nc(/N=N/c2ccccc2)c2c(N)ncnc21 [Compound 3]
